Reference: ChEMBL document CHEMBL1129879, “Enzymatic synthesis of peptidyl amino alcohols and peptidyl amino aldehydes-serine proteinase inhibitors” (Bioorg Med Chem Lett, 1997)
Where a SMILES comes first, the peptide text is derived from it. The star is where a group is joined. Cbz = O=C(OCc1ccccc1)*

How the values were obtained:
[1] = The compound was tested for the inhibition of subtilisin 72, activity expressed as IC50; set-up: species or system Bacillus subtilis
[2] = The compound was tested for the inhibition of subtilisin 72, activity expressed as Ki; set-up: species or system Bacillus subtilis

SMILES | IC50 [1] | Ki [2]
C[C@H](NC(=O)OCc1ccccc1)C(=O)N[C@@H](C)C(=O)N[C@H](C=O)Cc1ccccc1 (Cbz-Ala-Ala-Phe-aldehyde) | 0.9 µM | 0.18 µM
C[C@H](NC(=O)OCc1ccccc1)C(=O)N[C@@H](C)C(=O)N[C@H](CO)Cc1ccccc1 (HELM PEPTIDE1{[O=C(OCc1ccccc1)[*:2]].A.A.[OC[C@H](Cc1ccccc1)N[*:1]]}$$$$V2.0) |  | 1000 µM
